{"source": "patent US20080064667A1", "about": "“OXAZOLE DERIVATIVES OF TETRACYCLINES” (Wyeth, priority 2003, published 2008)", "assay_in_all_cases": "MIC, broth microdilution (NCCLS)", "type_in_all_cases": "cell-based", "key": {"[1]": {"tested_on": "S. aureus GC2216 (ATCC Control)", "conditions": "Staphylococcus aureus, Mueller-Hinton II broth, 18-22 hours at 35° C.", "protocol": "(§1) Methods for in Vitro Antibacterial Evaluation\n(§2) The Minimum Inhibitory Concentration (MIC)\n(§3) Antimicrobial susceptibility testing. The in vitro activities of the antibiotics are determined by the broth microdilution method as recommended by the National Committee for Clinical Laboratory Standards (NCCLS) (1). Mueller-Hinton II broth (MHBII)(BBL Cockeysville, Md.) is the medium employed in the testing procedures. Microtiter plates containing serial dilutions of each antimicrobial agent are inoculated with each organism to yield the appropriate density (10^5 CFU/ml) in a 100 μl final volume. The plates are incubated for 18-22 hours at 35° C. in ambient air.\n(§4) 1. NCCLS. 2000. Methods for Dilution Antimicrobial Susceptibility Tests for Bacteria That Grow Aerobically; Approved Standards: M7-A5, vol. 20. National Committe for Clinical Laboratory Standards, Wayne, Pa."}, "[2]": {"tested_on": "H. influenzae<> GC6896 (ATCC Control)", "conditions": "Haemophilus influenzae, Mueller-Hinton II broth, 18-22 hours at 35° C.", "protocol": "as §1, §2, §3, §4"}, "E. coli GC1073 (tet(B))": {"tested_on": "E. coli GC1073 (tet(B))", "conditions": "Escherichia coli", "protocol": "as §1, §2, §3, §4"}, "[3]": {"tested_on": "E. coli GC4559 (parent GC4560)", "conditions": "Escherichia coli, Mueller-Hinton II broth, 18-22 hours at 35° C.", "protocol": "as §1, §2, §3, §4"}, "[4]": {"tested_on": "E. coli GC4560 (IMP mutant)", "conditions": "Escherichia coli", "protocol": "as §1, §2, §3, §4"}, "[5]": {"tested_on": "S. pneumoniae* GC1894 (Clinical)", "conditions": "Streptococcus pneumoniae, Mueller-Hinton II broth, 18-22 hours at 35° C.", "protocol": "as §1, §2, §3, §4"}, "[6]": {"tested_on": "S. aureus GC4536 (Smith MP -In Vivo)", "conditions": "Staphylococcus aureus, Mueller-Hinton II broth, 18-22 hours at 35° C.", "protocol": "as §1, §2, §3, §4"}, "[7]": {"tested_on": "E. faecalis GC2242 (Van-resistant)", "conditions": "Enterococcus faecalis, Mueller-Hinton II broth, 18-22 hours at 35° C.", "protocol": "as §1, §2, §3, §4"}, "[8]": {"tested_on": "S. aureus GC1131 (Clinical)", "conditions": "Staphylococcus aureus, Mueller-Hinton II broth, 18-22 hours at 35° C.", "protocol": "as §1, §2, §3, §4"}, "[9]": {"tested_on": "S. aureus GC1079 (tet(K))", "conditions": "Staphylococcus aureus, Mueller-Hinton II broth, 18-22 hours at 35° C.", "protocol": "as §1, §2, §3, §4"}, "E. coli GC2270 (tet(M))": {"tested_on": "E. coli GC2270 (tet(M))", "conditions": "Escherichia coli", "protocol": "as §1, §2, §3, §4"}, "[10]": {"tested_on": "C. albicans GC3066 ATCC (Control)", "conditions": "Candida albicans, Mueller-Hinton II broth, 18-22 hours at 35° C.", "protocol": "as §1, §2, §3, §4"}, "[11]": {"tested_on": "E. faecalis GC4555 (ATCC Control)", "conditions": "Enterococcus faecalis, Mueller-Hinton II broth, 18-22 hours at 35° C.", "protocol": "as §1, §2, §3, §4"}, "[12]": {"tested_on": "S. aureus GC6466 (tet(M))", "conditions": "Staphylococcus aureus, Mueller-Hinton II broth, 18-22 hours at 35° C.", "protocol": "as §1, §2, §3, §4"}, "[13]": {"tested_on": "M. catarrhalis* GC6907 (Clinical)", "conditions": "Moraxella catarrhalis, Mueller-Hinton II broth, 18-22 hours at 35° C.", "protocol": "as §1, §2, §3, §4"}, "[14]": {"tested_on": "S. pneumoniae* GC4465 (Clinical)", "conditions": "Streptococcus pneumoniae, Mueller-Hinton II broth, 18-22 hours at 35° C.", "protocol": "as §1, §2, §3, §4"}, "[15]": {"tested_on": "S. pyogenes* GC4563 (Clinical)", "conditions": "Streptococcus pyogenes, Mueller-Hinton II broth, 18-22 hours at 35° C.", "protocol": "as §1, §2, §3, §4"}, "[16]": {"tested_on": "E. coli GC2203 (ATCC Control)", "conditions": "Escherichia coli, Mueller-Hinton II broth, 18-22 hours at 35° C.", "protocol": "as §1, §2, §3, §4"}}}
{"smiles": "CN(C)c1cc2nc(C=C(c3ccccc3)c3ccccc3)oc2c2c1C[C@H]1C[C@H]3[C@H](N(C)C)C(O)=C(C(N)=O)C(=O)[C@@]3(O)C(O)=C1C2=O", "note": "[Example 1, (6aR,7aS,8S,11aS)-5,8-bis(dimethylamino)-2-(2,2-diphenylvinyl)-9,11a,12-trihydroxy-11,13-dioxo-6,6a,7,7a,8,11,11a,13-octahydrotetraceno[2,1-d][1,3]oxazole-10-carboxamide]", "values": [{"measurement": "MIC", "setting": "[1]", "result": 16, "unit": "µg/mL"}, {"measurement": "MIC", "setting": "[2]", "result": "> 64", "unit": "µg/mL"}, {"measurement": "MIC", "setting": "E. coli GC1073 (tet(B))", "result": "> 64", "unit": "µg/mL"}, {"measurement": "MIC", "setting": "[3]", "result": "> 64", "unit": "µg/mL"}, {"measurement": "MIC", "setting": "[4]", "result": 32, "unit": "µg/mL"}, {"measurement": "MIC", "setting": "[5]", "result": 8, "unit": "µg/mL"}, {"measurement": "MIC", "setting": "[6]", "result": 16, "unit": "µg/mL"}, {"measurement": "MIC", "setting": "[7]", "result": 16, "unit": "µg/mL"}, {"measurement": "MIC", "setting": "[8]", "result": 16, "unit": "µg/mL"}, {"measurement": "MIC", "setting": "[9]", "result": 16, "unit": "µg/mL"}, {"measurement": "MIC", "setting": "E. coli GC2270 (tet(M))", "result": "> 64", "unit": "µg/mL"}, {"measurement": "MIC", "setting": "[10]", "result": "> 64", "unit": "µg/mL"}, {"measurement": "MIC", "setting": "[11]", "result": 32, "unit": "µg/mL"}, {"measurement": "MIC", "setting": "[12]", "result": 32, "unit": "µg/mL"}, {"measurement": "MIC", "setting": "[13]", "result": "> 64", "unit": "µg/mL"}, {"measurement": "MIC", "setting": "[14]", "result": 16, "unit": "µg/mL"}, {"measurement": "MIC", "setting": "[15]", "result": 8, "unit": "µg/mL"}, {"measurement": "MIC", "setting": "[16]", "result": "> 64", "unit": "µg/mL"}]}
{"smiles": "CC(C)=Cc1nc2ccc3cc4c(c(O)c3c2o1)C(=O)[C@]1(O)C(=O)C(C(N)=O)=C(O)[C@@H](N(C)C)[C@@H]1C4", "note": "[Example 2, (7aS,8S,11aS)-8-(dimethylamino)-9,11a,13-trihydroxy-2-(2-methyl-1-propenyl)-11,12-dioxo-7,7a,8,11,11a,12-hexahydronaphthaceno[2,1-d][1,3]oxazole-10-carboxamide]", "values": [{"measurement": "MIC", "setting": "[1]", "result": 8, "unit": "µg/mL"}, {"measurement": "MIC", "setting": "E. coli GC1073 (tet(B))", "result": "> 64", "unit": "µg/mL"}, {"measurement": "MIC", "setting": "[3]", "result": "> 64", "unit": "µg/mL"}, {"measurement": "MIC", "setting": "[4]", "result": 8, "unit": "µg/mL"}, {"measurement": "MIC", "setting": "[6]", "result": 8, "unit": "µg/mL"}, {"measurement": "MIC", "setting": "[7]", "result": 8, "unit": "µg/mL"}, {"measurement": "MIC", "setting": "[8]", "result": 8, "unit": "µg/mL"}, {"measurement": "MIC", "setting": "[9]", "result": 8, "unit": "µg/mL"}, {"measurement": "MIC", "setting": "E. coli GC2270 (tet(M))", "result": "> 64", "unit": "µg/mL"}, {"measurement": "MIC", "setting": "[10]", "result": "> 64", "unit": "µg/mL"}, {"measurement": "MIC", "setting": "[11]", "result": 8, "unit": "µg/mL"}, {"measurement": "MIC", "setting": "[12]", "result": 8, "unit": "µg/mL"}, {"measurement": "MIC", "setting": "[14]", "result": 8, "unit": "µg/mL"}, {"measurement": "MIC", "setting": "[15]", "result": 8, "unit": "µg/mL"}, {"measurement": "MIC", "setting": "[16]", "result": "> 64", "unit": "µg/mL"}]}
{"smiles": "CN(C)c1ccc(-c2nc3ccc4cc5c(c(O)c4c3o2)C(=O)[C@]2(O)C(=O)C(C(N)=O)=C(O)[C@@H](N(C)C)[C@@H]2C5)cc1", "note": "[Example 3, (7aS,8S,11aS)-8-(dimethylamino)-2-[4-(dimethylamino)phenyl]-9,11a,13-trihydroxy-11,12-dioxo-7,7a,8,11,11a,12-hexahydronaphthaceno[2,1-d][1,3]oxazole-10-carboxamide]", "values": [{"measurement": "MIC", "setting": "[1]", "result": 2, "unit": "µg/mL"}, {"measurement": "MIC", "setting": "E. coli GC1073 (tet(B))", "result": "> 64", "unit": "µg/mL"}, {"measurement": "MIC", "setting": "[3]", "result": "> 64", "unit": "µg/mL"}, {"measurement": "MIC", "setting": "[4]", "result": 16, "unit": "µg/mL"}, {"measurement": "MIC", "setting": "[6]", "result": 2, "unit": "µg/mL"}, {"measurement": "MIC", "setting": "[7]", "result": 2, "unit": "µg/mL"}, {"measurement": "MIC", "setting": "[8]", "result": 2, "unit": "µg/mL"}, {"measurement": "MIC", "setting": "[9]", "result": 1, "unit": "µg/mL"}, {"measurement": "MIC", "setting": "E. coli GC2270 (tet(M))", "result": "> 64", "unit": "µg/mL"}, {"measurement": "MIC", "setting": "[10]", "result": "> 64", "unit": "µg/mL"}, {"measurement": "MIC", "setting": "[11]", "result": 2, "unit": "µg/mL"}, {"measurement": "MIC", "setting": "[12]", "result": 2, "unit": "µg/mL"}, {"measurement": "MIC", "setting": "[14]", "result": 2, "unit": "µg/mL"}, {"measurement": "MIC", "setting": "[15]", "result": 8, "unit": "µg/mL"}, {"measurement": "MIC", "setting": "[16]", "result": "> 64", "unit": "µg/mL"}]}
{"smiles": "CN(C)c1cc2nc(C(C)(C)C)oc2c2c1C[C@H]1C[C@H]3[C@H](N(C)C)C(O)=C(C(N)=O)C(=O)[C@@]3(O)C(O)=C1C2=O", "note": "[Example 4, (6aR,7aS,8S,11aS)-2-tert-butyl-5,8-bis(dimethylamino)-9,11a,12-trihydroxy-11,13-dioxo-6,6a,7,7a,8,11,11a,13-octahydrotetraceno[2,1-d][1,3]oxazole-10-carboxamide]", "values": [{"measurement": "MIC", "setting": "[1]", "result": 32, "unit": "µg/mL"}, {"measurement": "MIC", "setting": "[2]", "result": "> 64", "unit": "µg/mL"}, {"measurement": "MIC", "setting": "E. coli GC1073 (tet(B))", "result": "> 64", "unit": "µg/mL"}, {"measurement": "MIC", "setting": "[3]", "result": "> 64", "unit": "µg/mL"}, {"measurement": "MIC", "setting": "[4]", "result": 16, "unit": "µg/mL"}, {"measurement": "MIC", "setting": "[5]", "result": 32, "unit": "µg/mL"}, {"measurement": "MIC", "setting": "[6]", "result": 32, "unit": "µg/mL"}, {"measurement": "MIC", "setting": "[7]", "result": 32, "unit": "µg/mL"}, {"measurement": "MIC", "setting": "[8]", "result": 16, "unit": "µg/mL"}, {"measurement": "MIC", "setting": "[9]", "result": 16, "unit": "µg/mL"}, {"measurement": "MIC", "setting": "E. coli GC2270 (tet(M))", "result": "> 64", "unit": "µg/mL"}, {"measurement": "MIC", "setting": "[10]", "result": "> 64", "unit": "µg/mL"}, {"measurement": "MIC", "setting": "[11]", "result": 32, "unit": "µg/mL"}, {"measurement": "MIC", "setting": "[12]", "result": 32, "unit": "µg/mL"}, {"measurement": "MIC", "setting": "[13]", "result": 16, "unit": "µg/mL"}, {"measurement": "MIC", "setting": "[14]", "result": 16, "unit": "µg/mL"}, {"measurement": "MIC", "setting": "[15]", "result": 16, "unit": "µg/mL"}, {"measurement": "MIC", "setting": "[16]", "result": "> 64", "unit": "µg/mL"}]}
